From patent US9249132B2, “Substituted bicyclic aromatic compounds as S-nitrosoglutathione reductase inhibitors” (Nivalis Therapeutics, Inc., priority 2010, dated 2016)

Key:
[1] = system: cigarette smoke-induced COPD; experiment: Subchronic (11 day) cigarette smoke exposure COPD model; format: in vivo, mouse; settings: oral 10 mg/kg/day for 11 days
Protocol: Infiltration of inflammatory cells into the bronchoalveolar lavage fluid (BALF) and BALF levels of chemokines involved in inflammation and tissue turnover/repair were measured to assess the influences of GSNOR inhibitors on some of the early events associated with the initiation and progression of COPD. […] In animal models, changes in lung pathology are only evident after extended (several months) duration of exposure to cigarette smoke, thus making chronic models prohibitive as effective screening tools. […] The key roles of inflammation in the initiation and progression of COPD, make these short duration models relevant for initial tests of efficacy of novel therapeutics. Subchronic (11 Day) Smoke Exposure Model: Female C57B1/6 mice (N=10 per group) were exposed to cigarette smoke generated from Marlboro 100 cigarettes without filters. Exposure times were 25 min. on study day 1, 35 min. on study day 2, and 45 min. on study days 3 to 11. GSNOR inhibitors were administered one hour prior to smoke exposure on each day. GSNOR inhibitors were dosed orally at 1 to 10 mg/kg/day for 11 days. The effects of GSNOR inhibitors were assessed by quantitating the number of total cells, and leukocytes differentials in the BALF via light microscopy at 24 h after the last exposure. The effect of GSNOR inhibitors were compared to vehicle treated controls and expressed as percent inhibition of the cigarette smoke induced increases in BALF cell numbers. Roflumilast was used as the positive control for the study and was dosed at 5 mg/kg/day. A group of naïve mice (N=10) was exposed to air and dosed with vehicle as a negative control for the study.

[2] = system: ovalbumin (OVA)-induced asthma; experiment: Mouse model of ovalbumin (OVA)-induced asthma, eosinophil infiltrate in BALF; format: in vivo; settings: three oral doses of 10 mg/kg at 48 h, 24 h, and 1 h prior to assessment; p<0.05
Protocol: A mouse model of ovalbumin (OVA)-induced asthma was used to screen GSNOR inhibitors for efficacy against methacholine (MCh)-induced bronchoconstriction/airway hyper-responsiveness. This is a widely used and well characterized model that presents with an acute, allergic asthma phenotype with similarities to human asthma. Efficacy of GSNOR inhibitors was assessed using a protocol in which GSNOR inhibitors were administered after OVA sensitization and airway challenge, and prior to challenge with MCh. Bronchoconstriction in response to challenge with increasing doses of MCh was assessed using whole body plethysmography (Penh; Buxco). The amount of eosinophil infiltrate into the bronchoaveolar lavage fluid (BALF) was also determined as a measure of lung inflammation. […]
In vivo airway responsiveness to methacholine was measured 24 h after the last OVA challenge in conscious, freely moving, spontaneously breathing mice with whole body plethysmography using a Buxco chamber (Wilmington, N.C.). […] The degree of bronchoconstriction was expressed as enhanced pause (Penh), a calculated dimensionless value, which correlates with the measurement of airway resistance, impedance, and intrapleural pressure in the same mouse. Penh readings were taken and averaged for 4 min. after each nebulization challenge. […]

[3] = system: dextran sodium sulfate (DSS)-induced IBD; experiment: Acute prophylactic model of DSS-induced IBD; format: in vivo, mouse
From the text: Acute and chronic models of dextran sodium sulfate (DSS)-induced IBD in mice were used to explore efficacy of GSNORi against this disease. Acute and chronic DSS-induced IBD are widely used and well characterized models that induce pathological changes in the colon similar to those observed in the human disease. In these models and in human disease, epithelial cells within the crypts of the colon are disrupted, leading to dysfunction of the epithelial barrier and the ensuing tissue inflammation, edema, and ulceration. GSNORi therapy may benefit IBD by restoring s-nitrosoglutathione (GSNO) levels, and thus prevent or reverse the epithelial barrier dysfunction. Experimental IBD was induced by administration of DSS in the drinking water of male C57B1/6 mice (N=8 to 10 mice per group) for 6 consecutive days. GSNORi was dosed orally at doses of 0.1 to 10 mg/kg/day for 10 days starting two days prior to and continuing two days post DSS exposure. Two days post DSS exposure, the effect of GSNORi was assessed in a blinded fashion via endoscopy and histopathology using a five point scale ranging from a score=0 (normal tissue) through a score=4 (ulcerative tissue damage and marked pathological changes). Levels of circulating cytokines involved in inflammatory pathways were also assessed. The effect of GSNORi was compared to vehicle treated controls. The corticosteroid, prednisolone, was used as the positive control in this study and was administered daily at 3 mg/kg/day via oral dosing. Naïve mice (N=5) were also assessed as a normal tissue control.

[4] = acute model, oral 1 mg/kg/day for 10 consecutive days, prophylactic dosing regimen

Structure (SMILES): O=C(O)c1ccc(-c2ccc3cc(O)ccc3c2)c(Cl)c1 [Example 1, 3-chloro-4-(6-hydroxynaphthalen-2-yl)benzoic acid]
- inhibition of smoke-induced increase in lymphocytes in BAL [1]: 41%
- inhibition of smoke-induced increase in macrophages in BAL ([1]; p<0.05): 40%
- inhibition of smoke-induced increase in neutrophils in BAL ([1]; p<0.05): 49%
- inhibition of smoke-induced increase in total cells in BAL ([1]; p<0.05): 40%
- decrease of eosinophil infiltration in BAL, of vehicle control [2]: 44%
- colon injury (in words) ([3]; acute DSS-induced IBD): attenuated colon injury
- decrease of percent of mice presenting with severe colon injury scores via endoscopy, of vehicle control [3, 4]: 17%
- decrease of percent of mice presenting with severe colon injury scores via histopathology, of vehicle control [3, 4]: 21%
- decrease of percent of mice presenting with severe endoscopy scores, of vehicle control ([3]; acute model, oral 10 mg/kg/day for 10 days, p<0.05): 72%
